Measurements published in PubChem BioAssay AID330 (DTP/NCI, 2004).
Several values for one entry are separate records, joined by “and”; a condition that tells them apart may be missing. Equal values may be shown once. Inconclusive results and toxic doses are left out. How the source made its calls: active means survival T/C of 150% or more; inactive means T/C below 125% in these data.

System: P388 leukemia ip, CD2F1 mice, survival T/C
Test: NCI In Vivo Anticancer Drug Screen. Data for tumor model P388 Leukemia (intraperitoneal) in CD2F1 (CDF1) mice
Conditions: endpoint: median survival time, higher = longer survival
Outline: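 Mice carrying the transplanted tumor received test compound or vehicle. Survival was recorded in each group, and the value is the treated-group measurement divided by that of the vehicle-treated control group.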

[1] = dose: 50.0 mg/kg/injection, schedule: Q01DX005 (ip), vehicle: saline with Tween-80
[2] = dose: 100.0 mg/kg/injection, schedule: Q01DX005 (ip), vehicle: saline with Tween-80

Measured: T/C

Nc1ncnc2c1ncn2C1OC(COP(=O)(O)O)C(O)C1O (stereo not given)
active: dose: 75.0 mg/kg/injection, schedule: Q03HX016 (ip), vehicle: saline 152 % of control | dose: 75.0 mg/kg/injection, schedule: Q03HX024 (ip), vehicle: saline 150 % of control | dose: 100.0 mg/kg/injection, schedule: Q03HX016 (ip), vehicle: saline 156 % of control | dose: 100.0 mg/kg/injection, schedule: Q03HX016 (ip), vehicle: water 160 % of control | dose: 100.0 mg/kg/injection, schedule: Q03HX024 (ip), vehicle: saline 150 % of control | dose: 100.0 mg/kg/injection, schedule: Q03HX024 (ip), vehicle: water 151 % of control | dose: 150.0 mg/kg/injection, schedule: Q03HX016 (ip), vehicle: saline 167 % of control | dose: 150.0 mg/kg/injection, schedule: Q03HX024 (ip), vehicle: saline 171 % of control | dose: 200.0 mg/kg/injection, schedule: Q03HX016 (ip), vehicle: water 183 % of control | dose: 200.0 mg/kg/injection, schedule: Q03HX024 (ip), vehicle: water 186 % of control | dose: 400.0 mg/kg/injection, schedule: Q01DX009 (ip), vehicle: water 153 % of control | dose: 400.0 mg/kg/injection, schedule: Q03HX016 (ip), vehicle: water 230 % of control | dose: 400.0 mg/kg/injection, schedule: Q03HX024 (ip), vehicle: water 210 % of control | dose: 800.0 mg/kg/injection, schedule: Q01DX005 (ip), vehicle: water 158 % of control | dose: 800.0 mg/kg/injection, schedule: Q01DX009 (ip), vehicle: water 164 % of control | dose: 800.0 mg/kg/injection, schedule: Q03HX009 (ip), vehicle: water 167 % of control | dose: 800.0 mg/kg/injection, schedule: Q03HX016 (ip), vehicle: water 260 % of control | dose: 1600.0 mg/kg/injection, schedule: Q03HX009 (ip), vehicle: water 197 % of control
inactive: dose: 12.5 mg/kg/injection, schedule: Q01DX009 (ip), vehicle: saline 99 % of control | dose: 18.8 mg/kg/injection, schedule: Q03HX016 (ip), vehicle: saline 123 % of control | dose: 18.8 mg/kg/injection, schedule: Q03HX024 (ip), vehicle: saline 113 % of control | dose: 20.0 mg/kg/injection, schedule: Q01DX009 (ip), vehicle: water 96 % of control | dose: 25.0 mg/kg/injection, schedule: Q01DX009 (ip), vehicle: saline 102 % of control | dose: 25.0 mg/kg/injection, schedule: Q01DX009 (ip), vehicle: suspension in saline 104 % of control | dose: 40.0 mg/kg/injection, schedule: Q01DX009 (ip), vehicle: water 103 % of control and 105 % of control | dose: 50.0 mg/kg/injection, schedule: Q01DX005 (ip), vehicle: water 101 % of control | dose: 50.0 mg/kg/injection, schedule: Q01DX005 (iv), vehicle: water 102 % of control | dose: 50.0 mg/kg/injection, schedule: Q01DX009 (ip), vehicle: saline 94 % of control and 98 % of control | dose: 50.0 mg/kg/injection, schedule: Q01DX009 (ip), vehicle: suspension in saline 100 % of control | dose: 50.0 mg/kg/injection, schedule: Q01DX009 (ip), vehicle: water 113 % of control | dose: 80.0 mg/kg/injection, schedule: Q01DX009 (ip), vehicle: water 108 % of control and 116 % of control | dose: 90.0 mg/kg/injection, schedule: Q03HX024 (ip), vehicle: water 122 % of control | dose: 100.0 mg/kg/injection, schedule: Q01DX005 (ip), vehicle: water 122 % of control | dose: 100.0 mg/kg/injection, schedule: Q01DX005 (iv), vehicle: water 104 % of control | dose: 100.0 mg/kg/injection, schedule: Q01DX009 (ip), vehicle: saline 101 % of control and 96 % of control | dose: 100.0 mg/kg/injection, schedule: Q01DX009 (ip), vehicle: suspension in saline 96 % of control | dose: 100.0 mg/kg/injection, schedule: Q01DX009 (oral), vehicle: water 99 % of control | dose: 100.0 mg/kg/injection, schedule: Q04DX003 (ip), vehicle: water 120 % of control | dose: 100.0 mg/kg/injection, schedule: Q08DX002 (ip), vehicle: water 112 % of control | dose: 160.0 mg/kg/injection, schedule: Q01DX009 (ip), vehicle: water 109 % of control | dose: 200.0 mg/kg/injection, schedule: Q01DX005 (iv), vehicle: water 102 % of control | dose: 200.0 mg/kg/injection, schedule: Q01DX009 (ip), vehicle: saline 92 % of control and 101 % of control | dose: 200.0 mg/kg/injection, schedule: Q01DX009 (ip), vehicle: suspension in saline 106 % of control | dose: 200.0 mg/kg/injection, schedule: Q01DX009 (oral), vehicle: water 104 % of control | dose: 200.0 mg/kg/injection, schedule: Q04DX003 (ip), vehicle: water 121 % of control | dose: 200.0 mg/kg/injection, schedule: Q08DX002 (ip), vehicle: water 113 % of control | dose: 400.0 mg/kg/injection, schedule: Q01DX005 (iv), vehicle: water 106 % of control | dose: 400.0 mg/kg/injection, schedule: Q01DX009 (ip), vehicle: saline 104 % of control | dose: 400.0 mg/kg/injection, schedule: Q03HX009 (oral), vehicle: water 98 % of control | dose: 400.0 mg/kg/injection, schedule: Q03HX015 (oral), vehicle: water 103 % of control | dose: 400.0 mg/kg/injection, schedule: Q04DX003 (ip), vehicle: water 119 % of control | dose: 400.0 mg/kg/injection, schedule: Q08DX002 (ip), vehicle: water 118 % of control | dose: 800.0 mg/kg/injection, schedule: Q01DX005 (iv), vehicle: water 111 % of control | dose: 800.0 mg/kg/injection, schedule: Q01DX009 (oral), vehicle: water 90 % of control | dose: 800.0 mg/kg/injection, schedule: Q03HX009 (oral), vehicle: water 105 % of control | dose: 800.0 mg/kg/injection, schedule: Q03HX015 (oral), vehicle: water 100 % of control | dose: 800.0 mg/kg/injection, schedule: Q08DX002 (ip), vehicle: water 124 % of control | dose: 1600.0 mg/kg/injection, schedule: Q01DX009 (oral), vehicle: water 99 % of control | dose: 1600.0 mg/kg/injection, schedule: Q03HX009 (oral), vehicle: water 98 % of control | dose: 1600.0 mg/kg/injection, schedule: Q03HX015 (oral), vehicle: water 100 % of control | dose: 3200.0 mg/kg/injection, schedule: Q03HX009 (oral), vehicle: water 96 % of control | dose: 3200.0 mg/kg/injection, schedule: Q03HX015 (oral), vehicle: water 102 % of control

CCC1(O)CC(c2ccccc2)N(C)C(c2ccccc2)C1 (stereo not given)
inactive: [1] 99 % of control | [2] 95 % of control

CCN(CC)CCOC(=O)C(OCCC(C)C)(c1ccccc1)c1ccccc1
inactive: dose: 50.0 mg/kg/injection, schedule: Q01DX005 (ip), vehicle: Klucel (hydroxypropylcellulose) (HPC) 113 % of control | dose: 100.0 mg/kg/injection, schedule: Q01DX005 (ip), vehicle: Klucel (hydroxypropylcellulose) (HPC) 113 % of control

COC(=O)NC[Si](C)(C)C
inactive: dose: 15.0 mg/kg/injection, schedule: Q01DX005 (ip), vehicle: saline with Tween-80 105 % of control | dose: 30.0 mg/kg/injection, schedule: Q01DX005 (ip), vehicle: saline with Tween-80 106 % of control | dose: 60.0 mg/kg/injection, schedule: Q01DX005 (ip), vehicle: saline with Tween-80 103 % of control

COc1cc(OC)cc(C2OC(=O)c3c(OC)cc(C)cc32)c1 (stereo not given)
inactive: dose: 100.0 mg/kg/injection, schedule: Q04DX002 (ip), vehicle: saline with Tween-80 93 % of control | dose: 200.0 mg/kg/injection, schedule: Q04DX002 (ip), vehicle: saline with Tween-80 88 % of control | dose: 400.0 mg/kg/injection, schedule: Q04DX002 (ip), vehicle: saline with Tween-80 90 % of control

CCC(C)C1NC(=O)C2C(CCN2C(=O)C(Cc2c[nH]c3ccccc23)NC(=O)C(CC(C)C)N(C)C)Oc2ccc(cc2)/C=C\NC1=O (stereo not given)
inactive: dose: 100.0 mg/kg/injection, schedule: Q04DX003 (ip), vehicle: saline with Tween-80 94 % of control | dose: 200.0 mg/kg/injection, schedule: Q04DX003 (ip), vehicle: saline with Tween-80 97 % of control

COc1ccccc1/C=N/N1C(=O)C2C3C=CC(O3)C2C1=O (stereo not given)
inactive: [1] 104 % of control | [2] 89 % of control | dose: 200.0 mg/kg/injection, schedule: Q01DX005 (ip), vehicle: saline with Tween-80 93 % of control

COc1ccc(C(c2c(O)cc(C)[nH]c2=O)c2c(O)cc(C)[nH]c2=O)cc1F
inactive: dose: 50.0 mg/kg/injection, schedule: Q01DX009 (ip), vehicle: saline with Tween-80 97 % of control | dose: 100.0 mg/kg/injection, schedule: Q01DX009 (ip), vehicle: saline with Tween-80 96 % of control | dose: 200.0 mg/kg/injection, schedule: Q01DX009 (ip), vehicle: saline with Tween-80 95 % of control
